Among the data in ChEMBL document CHEMBL1212821 (J Med Chem, 2010) are IC50, EC50 and ratio values, retold here.

The target of assay [1] is T1, Kinesin-like protein KIF11 (Homo sapiens, UniProt P52732).
T1 sequence (P52732 whole entry): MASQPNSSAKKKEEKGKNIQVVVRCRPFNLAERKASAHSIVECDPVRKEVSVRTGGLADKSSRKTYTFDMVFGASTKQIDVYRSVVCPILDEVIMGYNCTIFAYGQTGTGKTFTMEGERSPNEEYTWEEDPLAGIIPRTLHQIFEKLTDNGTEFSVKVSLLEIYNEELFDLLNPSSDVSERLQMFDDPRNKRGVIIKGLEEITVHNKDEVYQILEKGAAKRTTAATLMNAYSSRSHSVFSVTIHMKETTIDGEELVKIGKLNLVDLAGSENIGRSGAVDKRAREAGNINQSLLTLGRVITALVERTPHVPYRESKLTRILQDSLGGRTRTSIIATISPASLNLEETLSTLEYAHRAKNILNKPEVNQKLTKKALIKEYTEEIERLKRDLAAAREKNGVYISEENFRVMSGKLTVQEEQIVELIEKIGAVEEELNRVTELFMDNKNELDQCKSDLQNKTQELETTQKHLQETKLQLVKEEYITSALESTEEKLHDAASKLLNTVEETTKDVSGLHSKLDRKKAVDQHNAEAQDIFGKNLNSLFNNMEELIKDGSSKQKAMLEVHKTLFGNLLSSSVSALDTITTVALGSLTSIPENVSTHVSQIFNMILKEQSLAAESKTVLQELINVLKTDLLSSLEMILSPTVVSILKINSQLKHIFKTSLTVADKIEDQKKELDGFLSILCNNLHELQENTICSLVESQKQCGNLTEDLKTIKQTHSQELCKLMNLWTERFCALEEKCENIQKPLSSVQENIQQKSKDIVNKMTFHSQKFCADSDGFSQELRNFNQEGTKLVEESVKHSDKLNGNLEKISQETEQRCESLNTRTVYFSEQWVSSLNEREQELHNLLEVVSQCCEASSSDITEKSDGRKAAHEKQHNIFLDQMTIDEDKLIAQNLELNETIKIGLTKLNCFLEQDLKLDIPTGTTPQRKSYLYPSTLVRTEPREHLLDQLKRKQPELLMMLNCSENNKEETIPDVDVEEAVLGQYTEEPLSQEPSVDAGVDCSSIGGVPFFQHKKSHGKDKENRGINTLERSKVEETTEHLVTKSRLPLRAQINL
In words: Inhibition of human kinesin Eg5.

The subject of another assay is HCT-116. The assay can be described thus: Antiproliferative activity against human HCT116 cells after 72 hrs by Alamar blue assay. Background: Resazurin is reduced to fluorescent resorufin, in cell work by metabolically active cells.
Assay [2] is described as follows: Antiproliferative activity against human hTERT-HME1 cells after 72 hrs by Alamar blue assay.
A further assay has as its system BXPC-3. The assay can be described thus: Antiproliferative activity against human BxPC3 cells after 72 hrs by Alamar blue assay.
Another assay relates to K562. The assay can be described thus: Antiproliferative activity against human K562 cells after 72 hrs by Alamar blue assay.
The next assay deals with NCI-H1299. In words: Antiproliferative activity against human NCI-H1299 cells after 72 hrs by Alamar blue assay.
A short description of assay [3]: Antiproliferative activity against human KB3-1 cells after 72 hrs by Alamar blue assay. The following applies: KB 3-1, 72 h.
Assay [4] can be described thus: Antiproliferative activity against human KBV1 cells overexpressing MDR1 after 72 hrs by Alamar blue assay. The note with it: KB-V1, 72 h.
Assay [5] in a line: Drug resistant ratio of EC50 for human KBV1 cells overexpressing MDR1 to EC50 for KB3-1 cells. The assay is classed as functional, cell-based.
The nature of assay [6]: Antiproliferative activity against human KB3-1 cells after 72 hrs by Alamar blue assay in presence of zosuquidar. The note with it: KB 3-1, 72 h.
A short description of assay [7]: Antiproliferative activity against human KBV1 cells overexpressing MDR1 after 72 hrs by Alamar blue assay in presence of zosuquidar. The note with it: KB-V1, 72 h.

Usually IC50 stands for the midpoint of a concentration-inhibition curve. Regarding `CCOC(=O)C1=C(C)NC(=S)N[C@@H]1c1cccc(O)c1`, the IC50 in [1] amounted to 30000 nM. That is a double-digit micromolar value.

Broadly, the EC50 is the concentration that produces a half-maximal response. As for `CC1=C(C(=O)c2ccc(F)cc2)C(c2cccc(O)c2)NC(=S)N1C` (stereo unspecified), the EC50 came out at 951 nM in the assay with HCT-116 (Homo sapiens, HCT-116, 72 h); 2540 nM in assay [2] (Homo sapiens, HME1, 72 h); 2160 nM in the assay on BXPC-3 (Homo sapiens, BXPC-3, 72 h); 2620 nM in the assay on K562 (Homo sapiens, K562, 72 h); 2390 nM in the assay on NCI-H1299 (Homo sapiens, NCI-H1299, 72 h).

Consider `CC1=C(C(=O)c2cccc(F)c2)C(c2cccc(O)c2)NC(=S)N1C` (stereo unspecified), for which the EC50 came to 1290 nM with HCT-116 (Homo sapiens, HCT-116, 72 h); 2820 nM in assay [2] (Homo sapiens, HME1, 72 h); 2840 nM with BXPC-3 (Homo sapiens, BXPC-3, 72 h); 2740 nM in the assay on K562 (Homo sapiens, K562, 72 h); 2770 nM in the assay with NCI-H1299 (Homo sapiens, NCI-H1299, 72 h).

For the molecule `CC1=C(C(=O)c2ccc(F)c(F)c2)C(c2cccc(O)c2)NC(=S)N1C` (racemic), the EC50 in the assay on HCT-116 (hct-116) amounted to 387 nM; in assay [2] (hme1), 247 nM; with BXPC-3 (bxpc-3) it was 601 nM; in the assay on K562 (k562), 1150 nM; in the assay on NCI-H1299 (nci-h1299) it was 1360 nM; in assay [3] it was 832 nM. For the same molecule, the EC50 in assay [4] amounted to 2080 nM; in [6] it was 800 nM; in [7] it was 671 nM. Moreover, in [5], the ratio turned out to be 2.5.

As for `O=C1CCCC2=C1C(c1cccc(O)c1)NC(=S)N2` (racemic), the EC50 was determined as 1810 nM with HCT-116 (Homo sapiens, HCT-116, 72 h); 2440 nM in assay [2] (Homo sapiens, HME1, 72 h); 2070 nM in the assay with BXPC-3 (Homo sapiens, BXPC-3, 72 h); 4780 nM in the assay on K562 (Homo sapiens, K562, 72 h); 4900 nM with NCI-H1299 (Homo sapiens, NCI-H1299, 72 h).

In the case of `CCOC(=O)C1=C(C)NC(=S)NC1c1cccc(O)c1` (racemic) [MONASTROL], the EC50 with HCT-116 (Homo sapiens, HCT-116, 72 h) was 24200 nM; in assay [2] (Homo sapiens, HME1, 72 h) it was 45100 nM; in the assay with BXPC-3 (Homo sapiens, BXPC-3, 72 h), > 100 nM; in the assay with K562 (Homo sapiens, K562, 72 h), > 100 nM; with NCI-H1299 (Homo sapiens, NCI-H1299, 72 h), > 100 nM; in assay [3], 85100 nM. Besides, the EC50 came out at 99100 nM in assay [4], 56500 nM in assay [6] and 45400 nM in assay [7]. Besides, the ratio in [5] came out at 1.2.

Consider `CC1=C(C(=O)c2ccc(F)c(F)c2)C(c2cccc(O)c2)NC(=S)N1C` (stereo in doubt; form 1), for which the EC50 in the assay with HCT-116 (hct-116) was 15200 nM; in assay [2] (hme1), > 100 nM; in the assay with BXPC-3 (bxpc-3) it was 33700 nM; in the assay on K562 (k562), 26600 nM; with NCI-H1299 (nci-h1299) it was 33000 nM.

`CC1=C(C(=O)c2ccccc2)C(c2cccc(O)c2)NC(=S)N1C` (stereo in doubt; form 1): the EC50 in the assay with HCT-116 (hct-116) worked out at 1830 nM; in [2] (hme1) it was 1780 nM; with BXPC-3 (bxpc-3) it was 5000 nM; in the assay with K562 (k562), 5690 nM; in the assay with NCI-H1299 (nci-h1299), 6890 nM.

`CC1=C(C(=O)c2ccc(F)c(F)c2)C(c2cccc(O)c2)NC(=S)N1C` (stereo in doubt; form 2): the EC50 with HCT-116 (hct-116) came out at 327 nM; in assay [2] (hme1), 223 nM; with BXPC-3 (bxpc-3) it was 736 nM; in the assay on K562 (k562) it was 820 nM; with NCI-H1299 (nci-h1299), 783 nM.

As to `CC1=C(C(=O)c2ccccc2)C(c2cccc(O)c2)NC(=S)N1C` (stereo in doubt; form 2), the EC50 in the assay with HCT-116 (hct-116) is 6500 nM; in assay [2] (hme1), > 50000 nM; in the assay on BXPC-3 (bxpc-3), 14400 nM; in the assay on K562 (k562), 11400 nM; in the assay with NCI-H1299 (nci-h1299), 18100 nM.

As for `CC1=C(C(=O)c2ccccc2)C(c2cccc(O)c2)NC(=S)N1C` (stereo in doubt; form 3), the EC50 with HCT-116 (hct-116) was determined as 1740 nM; in assay [2] (hme1), 1190 nM; in the assay with BXPC-3 (bxpc-3), 3600 nM; in the assay on K562 (k562) it was 3700 nM; in the assay on NCI-H1299 (nci-h1299) it was 4610 nM.

On to `CC[C@]1(O)C[C@@H]2CN(CCc3c([nH]c4ccccc34)[C@@](C(=O)OC)(c3cc4c(cc3OC)N(C)[C@H]3[C@@](O)(C(=O)OC)[C@H](OC(C)=O)[C@]5(CC)C=CCN6CC[C@]43[C@@H]65)C2)C1` [VINBLASTINE], for which the EC50 in [3] worked out at 12.6 nM; in assay [4], 2040 nM; in assay [6], 8.5 nM; in assay [7], 13 nM. Also, the ratio in assay [5] came to 162.
